{
  "source": "patent US10822349B2",
  "about": "“Macrocyclic purines for the treatment of viral infections” (JANSSEN SCIENCES IRELAND UNLIMITED COMPANY, priority 2012, dated 2020)",
  "key": {"[1]": {"tested_on": "interferon production in human PBMC", "assay": "Interferon production in human PBMC, read out on HEK-ISRE-luc reporter cells", "assay_type": "cell-based", "conditions": "Homo sapiens, PBMC, 24 h, lowest effective concentration, PBMC supernatant after overnight incubation transferred to HEK-ISRE-luc cells, read-out: PBMC HEK-ISRE-luc (LEC; μM)", "how_it_was_run": "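Human PBMCs from at least two donors (2×10^5/well, RPMI with 10% human AB serum) incubated overnight with compounds; conditioned supernatant transferred onto HEK-ISRE-luc reporter cells for 24 h. Luciferase read-out reported as LEC, with recombinant interferon alfa-2a as standard.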"}, "[2]": {"molecular_target": "T1, human TLR7 (Homo sapiens, UniProt Q9NYK1)", "T1 construct": "expressed in transfected cells; host or cells: HEK293", "T1 sequence (Q9NYK1 27-1049)": "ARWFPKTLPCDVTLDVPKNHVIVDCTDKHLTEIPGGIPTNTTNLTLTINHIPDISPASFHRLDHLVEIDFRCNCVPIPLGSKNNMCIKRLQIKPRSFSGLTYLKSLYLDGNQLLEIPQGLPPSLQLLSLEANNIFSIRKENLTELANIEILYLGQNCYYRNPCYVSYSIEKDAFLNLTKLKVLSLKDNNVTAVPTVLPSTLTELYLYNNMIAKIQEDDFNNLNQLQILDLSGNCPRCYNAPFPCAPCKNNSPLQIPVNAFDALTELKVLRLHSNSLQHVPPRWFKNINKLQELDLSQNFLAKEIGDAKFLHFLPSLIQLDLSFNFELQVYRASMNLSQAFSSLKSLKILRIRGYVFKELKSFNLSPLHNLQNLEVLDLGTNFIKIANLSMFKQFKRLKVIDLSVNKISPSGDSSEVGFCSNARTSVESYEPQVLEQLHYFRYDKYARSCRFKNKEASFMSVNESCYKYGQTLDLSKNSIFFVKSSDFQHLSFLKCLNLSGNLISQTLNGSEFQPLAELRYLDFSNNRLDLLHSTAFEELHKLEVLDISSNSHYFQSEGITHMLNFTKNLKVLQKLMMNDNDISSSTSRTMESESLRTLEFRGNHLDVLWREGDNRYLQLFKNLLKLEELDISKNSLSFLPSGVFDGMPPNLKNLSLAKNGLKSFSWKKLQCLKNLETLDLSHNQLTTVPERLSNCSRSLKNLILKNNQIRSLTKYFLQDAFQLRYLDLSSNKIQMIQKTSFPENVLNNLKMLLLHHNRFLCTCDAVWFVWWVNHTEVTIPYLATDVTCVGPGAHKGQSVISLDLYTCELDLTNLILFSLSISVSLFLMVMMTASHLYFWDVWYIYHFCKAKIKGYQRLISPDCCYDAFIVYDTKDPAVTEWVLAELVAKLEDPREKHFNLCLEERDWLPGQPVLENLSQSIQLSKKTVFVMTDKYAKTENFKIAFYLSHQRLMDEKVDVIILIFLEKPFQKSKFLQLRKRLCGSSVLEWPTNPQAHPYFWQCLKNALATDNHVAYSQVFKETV", "assay": "TLR7 cellular reporter assay (HEK293 TLR7-NFκB-luc)", "assay_type": "cell-based", "conditions": "lowest effective concentration; HEK293 transiently transfected with TLR7 and NFκB-luc; 6 hours incubation", "how_it_was_run": "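HEK293 cells transiently co-transfected with CMV-TLR7 or TLR8 plasmid plus NFκB-luciferase reporter, 48 h post-transfection, then exposed to compound (added in 4% DMSO) for 6 h at 37 °C. Luciferase read-out; quadruplicate dose-response, LEC defined as concentration giving effect at least two-fold above assay SD.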"}, "[3]": {"molecular_target": "T2, human TLR8 (Homo sapiens, UniProt Q9NR97)", "T2 construct": "expressed in transfected cells; host or cells: HEK293", "T2 sequence (Q9NR97 27-1041)": "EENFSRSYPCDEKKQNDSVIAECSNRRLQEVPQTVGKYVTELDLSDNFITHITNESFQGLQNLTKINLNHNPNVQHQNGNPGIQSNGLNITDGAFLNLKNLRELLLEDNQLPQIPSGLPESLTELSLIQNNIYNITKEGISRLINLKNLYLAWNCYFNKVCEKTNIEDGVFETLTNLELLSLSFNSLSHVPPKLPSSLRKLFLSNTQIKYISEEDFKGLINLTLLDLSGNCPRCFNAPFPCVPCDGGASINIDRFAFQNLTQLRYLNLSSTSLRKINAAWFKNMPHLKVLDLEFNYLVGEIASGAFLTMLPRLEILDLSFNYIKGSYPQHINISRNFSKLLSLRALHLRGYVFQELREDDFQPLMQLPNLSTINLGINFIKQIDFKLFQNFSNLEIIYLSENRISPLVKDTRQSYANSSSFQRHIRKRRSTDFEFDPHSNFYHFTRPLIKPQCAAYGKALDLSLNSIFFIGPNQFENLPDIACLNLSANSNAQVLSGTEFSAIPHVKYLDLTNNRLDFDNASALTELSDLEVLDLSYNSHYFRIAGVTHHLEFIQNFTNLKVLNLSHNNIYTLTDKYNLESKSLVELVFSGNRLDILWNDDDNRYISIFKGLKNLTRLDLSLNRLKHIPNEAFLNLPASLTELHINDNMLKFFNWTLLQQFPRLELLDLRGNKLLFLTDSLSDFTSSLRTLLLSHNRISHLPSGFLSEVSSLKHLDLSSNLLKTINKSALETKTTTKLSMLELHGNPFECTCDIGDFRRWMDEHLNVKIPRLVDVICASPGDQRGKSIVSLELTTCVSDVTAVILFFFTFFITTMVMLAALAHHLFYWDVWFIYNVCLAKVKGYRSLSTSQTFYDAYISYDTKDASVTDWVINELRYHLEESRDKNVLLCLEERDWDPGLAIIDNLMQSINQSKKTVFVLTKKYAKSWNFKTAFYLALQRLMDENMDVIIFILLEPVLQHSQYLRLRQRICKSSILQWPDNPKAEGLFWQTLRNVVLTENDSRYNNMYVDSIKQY", "assay": "TLR8 cellular reporter assay (HEK293 TLR8-NFκB-luc)", "assay_type": "cell-based", "conditions": "lowest effective concentration; HEK293 transiently transfected with TLR8 and NFκB-luc; 6 hours incubation", "protocol": "The ability of compounds to activate human TLR7 and TLR8 was assessed in a cellular reporter assay using HEK293 cells transiently transfected with a TLR7 or TLR8 expression vector and NFκB-luc reporter construct. Briefly, HEK293 cells were grown in culture medium (DMEM supplemented with 10% FCS and 2 mM Glutamine). For transfection of cells in 10 cm dishes, cells were detached with Trypsin-EDTA, transfected with a mix of CMV-TLR7 or TLR8 plasmid (750 ng), NFκB-luc plasmid (375 ng) and a transfection reagent and incubated 48 hours at 37° C. in a humidified 5% CO2 atmosphere. Transfected cells were then detached with Trypsin-EDTA, washed in PBS and resuspended in medium to a density of 1.67×10^5 cells/mL. Thirty microliters of cells were then dispensed into each well in 384-well plates, where 10 μL of compound in 4% DMSO was already present. Following 6 hours incubation at 37° C., 5% CO2, the luciferase activity was determined by adding 15 μl of Steady Lite Plus substrate (Perkin Elmer) to each well and readout performed on a ViewLux ultraHTS microplate imager (Perkin Elmer). Dose response curves were generated from measurements performed in quadruplicates. Lowest effective concentrations (LEC) values, defined as the concentration that induces an effect which is at least two fold above the standard deviation of the assay, were determined for each compound."}, "[4]": {"conditions": "rcm bond"}},
  "note": "Read-outs that look alike come from different tables or passages of the source.",
  "data": [
    {"smiles": "Nc1nc2nc3c1nc(O)n3Cc1ncccc1/C=C\\CCCO2", "note": "[Compound 41]", "values": [
      {"measurement": "minimal effective concentration", "setting": "[1]", "result": 0.48, "unit": "µM"},
      {"measurement": "HEK293 TLR7-NFκB-luc (LEC; μM)", "setting": "[2]", "result": 1.93, "unit": "µM"},
      {"measurement": "LEC on HEK293 TLR8-NFκB-luc", "setting": "[3]", "result": 11.16, "unit": "µM"}
    ]},
    {"smiles": "COc1cc2cc(c1)OC/C=C/COc1nc(N)c3nc(O)n(c3n1)C2", "note": "[Compound 75]", "values": [
      {"measurement": "minimal effective concentration", "setting": "[1]", "result": 0.0026, "unit": "µM"},
      {"measurement": "HEK293 TLR7-NFκB-luc (LEC; μM)", "setting": "[2]", "result": 0.0068, "unit": "µM"},
      {"measurement": "LEC on HEK293 TLR8-NFκB-luc", "setting": "[3]", "result": 0.27, "unit": "µM"}
    ]},
    {"smiles": "CCOC(=O)N1Cc2ncccc2OCCC=CCOc2nc(N=P(c3ccccc3)(c3ccccc3)c3ccccc3)c([N+](=O)[O-])c1n2", "values": [
      {"measurement": "ring closure, yield of all isomers", "setting": "[4]; from C=CCCOc1cccnc1CN(C(=O)OCC)c1nc(OCC=C)nc(N=P(c2ccccc2)(c2ccccc2)c2ccccc2)c1[N+](=O)[O-], Hoveyda-Grubbs 2nd generation (with chlorodicyclohexylborane), 1,2-dichloroethane, 2.98 mM, 120.0 °C, 31.0 h", "result": 54, "unit": "%"}
    ]},
    {"smiles": "CCOC(=O)N1CCc2cccc(c2)OCC=CCOc2nc(N)c([N+](=O)[O-])c1n2", "values": [
      {"measurement": "ring closure, yield of all isomers", "setting": "[4]; from C=CCOc1cccc(CCN(C(=O)OCC)c2nc(OCC=C)nc(N)c2[N+](=O)[O-])c1, Grubbs 2nd generation, dichloromethane, 5.2 mM, 25.0 °C, 36.0 h", "result": 56.5, "unit": "%"}
    ]},
    {"smiles": "Nc1nc2nc3c1nc(O)n3Cc1ccccc1C/C=C/CCO2", "note": "[Compound 47]", "values": [
      {"measurement": "minimal effective concentration", "setting": "[1]", "result": 2.34, "unit": "µM"},
      {"measurement": "HEK293 TLR7-NFκB-luc (LEC; μM)", "setting": "[2]", "result": 3.43, "unit": "µM"},
      {"measurement": "LEC on HEK293 TLR8-NFκB-luc", "setting": "[3]", "result": 5.48, "unit": "µM"}
    ]},
    {"smiles": "Nc1nc2nc3c1nc(O)n3Cc1ncccc1OCC/C=C/CO2", "note": "[Compound 40]", "values": [
      {"measurement": "minimal effective concentration", "setting": "[1]", "result": 0.15, "unit": "µM"},
      {"measurement": "HEK293 TLR7-NFκB-luc (LEC; μM)", "setting": "[2]", "result": 1.3, "unit": "µM"},
      {"measurement": "LEC on HEK293 TLR8-NFκB-luc", "setting": "[3]", "result": "> 19.49", "unit": "µM"}
    ]},
    {"smiles": "Nc1nc2nc3c1nc(O)n3Cc1ncccc1OCC/C=C\\CO2", "note": "[Compound 39]", "values": [
      {"measurement": "minimal effective concentration", "setting": "[1]", "result": 0.22, "unit": "µM"},
      {"measurement": "HEK293 TLR7-NFκB-luc (LEC; μM)", "setting": "[2]", "result": 1.16, "unit": "µM"},
      {"measurement": "LEC on HEK293 TLR8-NFκB-luc", "setting": "[3]", "result": 20.46, "unit": "µM"}
    ]},
    {"smiles": "CCOC(=O)N1Cc2cccc(c2)CC=CCCC(CO[Si](C)(C)C(C)(C)C)Nc2nc(N)c([N+](=O)[O-])c1n2", "note": "(stereo not drawn)", "values": [
      {"measurement": "ring closure, yield of all isomers", "setting": "[4]; from C=CCCC(CO[Si](C)(C)C(C)(C)C)Nc1nc(N)c([N+](=O)[O-])c(N(Cc2cccc(CC=C)c2)C(=O)OCC)n1, Grubbs catalyst 2nd generation, CH2Cl2, 7.83 mM, 25.0 °C, 24.0 h", "result": 70, "unit": "%"}
    ]}
  ]
}
